Measurements taken from a melting point compilation (Tetko et al.; mined from patent text by program, amines drawn as free bases though some values may be those of a salt).

| melting point [°C] | SMILES |
| --- | --- |
| 180 | CC(=O)N[C@H]1C(O)O[C@H](CO)[C@@H](F)[C@@H]1O (some centres undefined) |
| 103 to 107 | COc1ccc(NC(=O)c2ccc(C(C)(C)C)cc2)c([N+](=O)[O-])c1 |
| 145 to 147 | COc1cc(OC)c(C(=O)CC(O)C(=O)O)cc1OC (centres undefined) |
| 144 to 146 | Cc1ccc(S(=O)(=O)n2ccc3c(C=O)cccc32)cc1 |
| 36 to 37 | O=C(CCCO)c1cccnc1 |
| 112 to 114 | COC(=O)C=C1NCC(CO)OC1=O (centres undefined) |
| 204 to 206 | COc1ccc(/C=C/C(=O)C2C(=O)CC(c3ccc(OC)cc3)C([N+](=O)[O-])C2c2cccc([N+](=O)[O-])c2)cc1 (centres undefined) |
| 78 to 80 | COC(=O)CCCNC(=O)C[C@H]1O[C@H](c2cccc(OC)c2OC)c2cc(Cl)ccc2N(CC(C)(C)CO)C1=O |
| 100 to 101 | O=C1OCCC=C1c1ccccc1 |
| 208 to 210 | N#CN=C(Nc1cccnc1)NC(NC(=O)c1ccc(I)cc1)C(Cl)(Cl)Cl (centres undefined) |
| 93 | CC(C)(C)OC(=O)Nc1ccc(-c2cccc(F)c2F)cc1[N+](=O)[O-] |
| 61 to 62 | CCOC(=O)Cc1c(-c2ccccc2)[nH]c2ccccc12 |
| 112 to 114 | CC1=C(C)c2cc(Br)ccc2Oc2ccccc21 |
| 65 to 67 | CCOC(=O)C(=CNC1CC1)C(=O)c1cc(F)c(Cl)c(C#N)c1Cl |
| 136 | CCOC(=O)C(C(=O)CCC(C)C)C1c2nccnc2C(=O)N1c1ccc2ccc(Cl)nc2n1 (centres undefined) |
| 112 to 114 | CC(C(=O)O)c1ccc(N2CC(O)C(O)C2)c(Cl)c1 (centres undefined) |
| > 300 | CCCCCCC(=Cc1ccc(-c2nnn[nH]2)cc1)C(OC)=C1SC(=S)NC1=O |
| 172 to 173 | Cc1ccc(NC(=O)c2ccccc2[N+](=O)[O-])cc1C(F)(F)F |
| 116 to 118 | O=C(O)C1(c2cccs2)CC1 |
| 134 | COc1nc(N)c(Cl)cc1C(=O)CCC1CCN(CC(O)C(C)(C)C)CC1 (centres undefined) |
| 208 to 212 | CCCCn1c(=O)n(Cc2ccccc2)c(=O)c2[nH]c(Cc3ccc(N4C(=O)CCC4=O)cc3)nc21 |
| 201 to 205 | CCC(CC)Nc1c(C)c(C)nc2c1c(C)nn2-c1c(C)cc(C)cc1C |
| 87 to 88 | Cc1c(OCC2CO2)noc1-c1ccccc1 (centres undefined) |
| 198 to 199 | COC(=O)NNc1cc(C)c(-c2cccc([N+](=O)[O-])c2)nn1 |

| melting point [°C] | SMILES |
| --- | --- |
| 78 | CCOc1c(Cl)cc([N+](=O)[O-])c(OCC)c1[N+](=O)[O-] |
| 106 to 108 | COC(=O)c1cc(-c2ccc(C)cc2)no1 |
| 127 to 129 | CC(c1ccc(F)cc1)N(O)C(N)=O (centres undefined) |
| 172 to 173 | CCCC(CCC)NC(=O)Nc1ccc(OC)cc1OC |
| 108 | CC(=O)NCCCC(=O)NCCCC(=O)c1ccc(Cl)cc1CCC(=O)O |
| 172 to 174 | CCC(C)S(=O)(=O)NC(=O)Nc1ccc(Cl)cc1 (centres undefined) |
| 92 to 93 | COC(=O)c1cccc(-c2ccccc2OC)c1 |
| 64 to 65 | CCOC(=O)C(C)(C)CCCCOc1ccc(NC(=O)CCCCCn2ccnc2)cc1 |
| 231 | C1c2c(-c3nn[nH]n3)n[nH]c2[C@@H]2C[C@H]12 |
| 146 | CCOC(=O)C(=O)C(C#N)c1ccc(Br)cc1 (centres undefined) |
| 205 to 206 | Cc1ccc(S(=O)(=O)Nc2nc(-c3ccc(Cl)c(Cl)c3)cs2)cc1 |
| 102 to 103 | Cc1ccc2c(c1)c1c(n2CCBr)C(=O)CCC1 |
| 111 to 113 | CCCCCC(O)c1cccc(OCc2cccc(CC(=O)O)c2)c1 (centres undefined) |
| 183 | O=c1oc(=O)n(-c2ccccc2)c2ccccc12 |
| 84 | CCC(C(=O)c1ccc(OCc2ccccc2)cc1)c1ccc(OCc2ccccc2)cc1 (centres undefined) |
| 167 to 169 | C=CCOC(=O)c1cccc(NC(=O)NCC(=O)Nc2ccccc2C(=O)c2ccc(OC)cc2)c1 |
| 202 to 203 | CN(C)C(=O)c1c(-c2ccccc2)oc2c(CCl)cccc2c1=O |
| 93 to 94 | CO[C@H]1CCCC[C@@]1(OC)c1cccc(OCc2ccc3ccccc3c2)c1 (racemic) |
| 186 to 188 | CCc1nccc2[nH]c(=O)ccc12 |
| 149 to 150 | CCOP(=O)(CCc1cccc(-c2nc(=O)c3ccccc3s2)n1)OCC |
| 174 to 175 | CC(=O)NCCc1cnn2ccc3c(c12)CCO3 |
| 194 to 196 | O=c1ccn(CCO)c(C(O)c2cccc(F)c2)c1OCc1ccccc1 (centres undefined) |
| 65 | O=C(O)Cc1ccc(OCCNC(=O)[C@@H]2Cc3ccccc3N2S(=O)(=O)c2ccc(Oc3ccc(F)cc3)cc2)cc1 |
| 245 to 248 | Nc1ccc2cnc(Nc3ccc(F)cc3)nc2n1 |

| melting point [°C] | SMILES |
| --- | --- |
| 267 to 268 | O=C(CN1c2nc(-c3ccncn3)cc(=O)n2CCC12CCN(C(=O)c1cccc(F)c1)C2)c1ccccc1 (centres undefined) |
| 122 | CCCCc1c(/C=C/C(=O)Oc2ccc([N+](=O)[O-])cc2)cc(OC)c2ccccc12 |
| 85 to 86 | C=CCC(N)(c1ccccc1)C(O)c1ccccc1 (centres undefined) |
| 105 | NC(=O)Cn1ccc2cccc(NC(c3ccc4c(cnn4-c4ccc(F)cc4)c3)C(F)(F)F)c21 (centres undefined) |
| 175 | CC(=O)N1c2cc(C)c(S(=O)(=O)C[N+](=O)[O-])c(C)c2CC1C (centres undefined) |
| 64 to 66 | O=S(=O)(Cl)c1ccc(F)c2nonc12 |
| 175 to 176 | Cc1ccc(-c2ccc3c(c2)C=C(C(=O)Nc2ccc(CN4CCCCC4)cc2)CC(C)O3)cc1 (centres undefined) |
| 163 to 166 | CN1C(=O)C=C(c2ccc([N+](=O)[O-])cc2)C1=O |
| 134 to 136 | COc1cccc(C=CC(=O)c2c(OCC=C(C)C)ccc3c(=O)c4ccccc4oc23)c1 |
| 215 to 217 | Cc1ccc(N2CCCCC2)c(C(C)C(C(N)=O)c2ccc(C(=O)O)cc2)c1 (centres undefined) |
| 165 to 168 | CCCCCCCCCC(=O)Oc1ccc2cc(C(=N)N)ccc2c1 |
| 251 to 252 | O=C(N[C@H](Cc1ccc(C(F)(F)F)cc1)[C@@H](O)c1cccc2ccccc12)c1ccc2ccccc2c1 (racemic) |
| 115 to 117 | COC(=O)CCCC#Cc1cc(Cl)ccc1NS(=O)(=O)c1cc(OC)ccc1OC |
| 143 to 145 | Cc1ccccc1C1SC2(CCN(CCCC(=O)c3ccc(F)cc3)CC2)c2ccccc21 (centres undefined) |
| 197 to 200 | CN1Cc2c(C#N)ncn2-c2sccc2C1=O |
| 104 to 106 | CCOC(=O)c1ccc(OCC(O)COc2cccc(O)c2C(C)=O)cc1 (centres undefined) |
| 170 to 174 | CCC(=Cc1cn(CC(=O)N(C)CCc2ccccc2)c2cccc(OCc3ccccc3)c12)C(=O)O |
| 46 to 47 | C#Cc1cc(C(C)(C)C)cc(C(C)(C)C)c1OCC |
| 215 | CC=CC=CC(=O)n1c(N)nc2ccccc21 |
| 79 to 80 | COC(=O)CCCc1ccc(S(=O)(=O)Nc2ccccc2)cn1 |
| 221 to 222 | CC(C)(C)OC(=O)N1CCn2c(c(C(N)=O)c(C#N)c2C2CC2)C1 |
| 204 to 206 | CCOC(=Cc1ccc(C(=O)OC)cc1)c1ccc2c(c1)C(C)(C)CCC2(C)C |
| 246 | NC(N)=Nc1nc(-c2ccc(CNC(=O)c3ccco3)o2)cs1 |
| 105 to 107 | COc1ccc(COc2c(C)c(C)c3c(c2C)C(c2ccc(N(C)C)cc2)C(C)(C)O3)cc1 (centres undefined) |

| melting point [°C] | SMILES |
| --- | --- |
| 195 to 197 | CCN1C(=O)CCCc2cc(Nc3ncc(Cl)c(Nc4ccccc4S(=O)(=O)C(C)C)n3)c(OC)cc21 |
| 108 to 110 | CCN1C(=O)CC[C@@H]2c3ccc(Cl)cc3CC[C@H]21 |
| 185 to 189 | CC(C)(SCc1ccccn1)C(NS(=O)(=O)c1ccc(Oc2ccc(-c3ccoc3)cc2)cc1)C(=O)O (centres undefined) |
| 144 to 146 | CCCc1nc(C)cc(=O)n1CCOc1ccc(CC2SC(=O)NC2=O)cc1 (centres undefined) |
| 54 to 57 | CN1C(=O)C(c2ccc(OC(F)F)cc2)(c2cccc(C(F)CCCF)c2)N=C1N (centres undefined) |
| 150 to 151 | CON1CCC2(CC1)NC(=O)C(c1cc(-c3ccc(Cl)cc3)c(F)cc1C)=C2OC(=O)C(C)(C)C |
| 248 to 249 | COc1ccc(OCc2cccc(OCc3ccc4ccccc4n3)c2)c(C(=O)O)c1 |
| 231 | OC(Cn1ccnc1)(c1ccc(Cl)cc1)C1(n2cnc(Cl)n2)CC1 (centres undefined) |
| 222 to 224 | N#Cc1cnc2sc(-c3ccccc3C=O)cc2c1Nc1ccc2[nH]ccc2c1 |
| 202 to 203 | O=C(N[C@@H]1CCc2cccc(N3CCNCC3)c2C1)c1ccc(N2CCOCC2)cc1 |
| 126 to 128 | Cc1ccc(NC(=O)C(C)(C)C)c(-c2ccnc(OCC(F)(F)F)n2)c1 |
| 180 | Cn1cc(-c2cc(-c3cccnc3)ccn2)n(-c2ccc(C(C)(C)C#N)cc2)c1=O |
| 154 | CC1(C2CCCC2)Cc2cc(OCCCC(=O)O)c(Cl)c(Cl)c2C1=O (centres undefined) |
| 229 to 230 | Cc1ccc(-n2c3ccc(C=O)cc3c3cc(C=O)ccc32)cc1 |
| 200 to 202 | COCOc1ccc2cc(C3CCN(C)CC3)[nH]c(=O)c2c1 |
| > 300 | O=c1ccn(-c2cc3[nH]c(=O)c(=O)[nH]c3cc2[N+](=O)[O-])cc1[N+](=O)[O-] |
| > 250 | O=C1c2cccc3c(N4CCCCC4)c(Br)cc(c23)C(=O)N1O |
| 146 to 147 | CC(C)(C1=NOS(=O)N1)c1ccc2ccccc2c1 (centres undefined) |
| 70.5 to 72 | Clc1cncc(-n2cccc2)c1 |
| 195 to 196 | CC(Cl)(Cl)C(NC(=O)c1cc(F)cc(F)c1)NC(=NC#N)Nc1ccc(Cl)nc1 (centres undefined) |
| 59 to 62 | CCCCCCCCCCCCCCCCCCOc1cc(NC(=O)OCc2ccccc2)cc(OCCCCC(=O)OC)c1 |
| > 300 | Cn1ncc2[nH]c3c(F)cccc3c(=O)c21 |

| SMILES | melting point [°C] |
| --- | --- |
| CC(C)(N)Cc1c[nH]c2ccccc12 | 72 to 74 |
| COC(=O)[C@H]1C[C@H]2C(=O)NCCN2C1 | 70 to 74 |
| C/C=C/Cn1nc(C(=O)c2cccc(O)c2)c2ccccc21 | 75 to 78 |
| O=C1CCC(=O)N(c2ccc(N3CCN(C4(c5ccc(-c6ccccc6)cc5)C(=O)NC(=O)NC4=O)CC3)cc2)C1 | 300 to 301 |
| C=CCN1CC(C)N(C(c2ccc(C(=O)N(CC)CC)cc2)c2cccc(O)c2)CC1C (centres undefined) | 170 to 171 |
